≈ marks a conversion by molar mass, not a printed value.
How the values were obtained:
Histone deacetylase [1] = type: protein assay, Homo sapiens
Description: Inhibitory concentration against human histone deacetylase (HDAC)

Histone deacetylase 1 [2] = target: Histone deacetylase 1 (Homo sapiens, UniProt Q13547, C151S); assay: Inhibitory concentration against human Histone deacetylase 1 (C151S)
Histone deacetylase 2 = Histone deacetylase 2 (Homo sapiens, UniProt Q92769); assay: Inhibitory concentration against human Histone deacetylase 2
Histone deacetylase 4 = Histone deacetylase 4 (Homo sapiens, UniProt P56524)
Description: Inhibitory concentration against human Histone deacetylase 4

[3] = target: T1, Protein deacetylase HDAC6 (Homo sapiens, UniProt Q9UBN7); assay: Inhibitory concentration against human Histone deacetylase 6
T1 sequence (Q9UBN7 whole entry): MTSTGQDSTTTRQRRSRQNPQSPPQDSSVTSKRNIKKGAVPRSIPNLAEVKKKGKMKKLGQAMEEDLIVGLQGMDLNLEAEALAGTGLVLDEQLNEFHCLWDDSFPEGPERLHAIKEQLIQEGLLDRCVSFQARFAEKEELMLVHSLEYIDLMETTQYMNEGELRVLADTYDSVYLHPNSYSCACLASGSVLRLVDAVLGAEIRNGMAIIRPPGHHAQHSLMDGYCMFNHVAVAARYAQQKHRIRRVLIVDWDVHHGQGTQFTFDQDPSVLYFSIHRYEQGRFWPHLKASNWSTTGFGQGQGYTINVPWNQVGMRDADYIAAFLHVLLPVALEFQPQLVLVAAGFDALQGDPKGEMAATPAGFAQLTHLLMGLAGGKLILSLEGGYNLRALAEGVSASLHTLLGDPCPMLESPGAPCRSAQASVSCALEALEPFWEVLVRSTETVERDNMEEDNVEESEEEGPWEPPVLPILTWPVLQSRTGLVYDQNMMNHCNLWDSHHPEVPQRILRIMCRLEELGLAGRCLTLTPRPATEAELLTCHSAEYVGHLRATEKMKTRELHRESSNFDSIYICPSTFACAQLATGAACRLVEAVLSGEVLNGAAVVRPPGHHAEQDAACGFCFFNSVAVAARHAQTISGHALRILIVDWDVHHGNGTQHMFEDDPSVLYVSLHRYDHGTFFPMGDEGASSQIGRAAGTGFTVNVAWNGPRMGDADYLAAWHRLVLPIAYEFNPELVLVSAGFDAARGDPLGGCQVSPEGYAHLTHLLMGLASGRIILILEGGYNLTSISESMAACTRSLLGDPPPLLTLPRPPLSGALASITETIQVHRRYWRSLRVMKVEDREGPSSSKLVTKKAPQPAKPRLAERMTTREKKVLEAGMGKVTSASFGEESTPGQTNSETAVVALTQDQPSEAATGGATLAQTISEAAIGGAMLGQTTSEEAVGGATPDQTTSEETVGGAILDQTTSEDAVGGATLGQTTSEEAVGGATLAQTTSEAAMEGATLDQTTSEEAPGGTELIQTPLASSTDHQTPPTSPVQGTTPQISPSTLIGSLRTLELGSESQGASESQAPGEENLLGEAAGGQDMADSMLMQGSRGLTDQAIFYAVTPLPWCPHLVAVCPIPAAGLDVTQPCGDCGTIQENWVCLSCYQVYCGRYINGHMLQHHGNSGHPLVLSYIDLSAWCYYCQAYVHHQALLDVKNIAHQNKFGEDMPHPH

[4] = target: T2, Histone deacetylase (Homo sapiens) (UniProt Q13547+O15379+Q9UBN7+Q92769+Q9UQL6+Q8WUI4+Q9BY41+Q96DB2+P56524+Q9UKV0+Q969S8); assay: Percent inhibition against isolated Histone deacetylase at 30 uM; type: protein assay
HCT-116 = assay: Inhibitory concentration against HCT116 cells proliferation; type: functional, cell-based; settings: Homo sapiens
Histone deacetylase [5] = type: protein assay, Homo sapiens; remark: listed apart in the source
Description: Inhibitory concentration against histone deacetylase

Histone deacetylase HD2 = target: T3, Histone deacetylase HD2 (Zea mays, UniProt Q94F81); assay: Inhibitory concentration against maize Histone deacetylase 2
T3 sequence (Q94F81 whole entry): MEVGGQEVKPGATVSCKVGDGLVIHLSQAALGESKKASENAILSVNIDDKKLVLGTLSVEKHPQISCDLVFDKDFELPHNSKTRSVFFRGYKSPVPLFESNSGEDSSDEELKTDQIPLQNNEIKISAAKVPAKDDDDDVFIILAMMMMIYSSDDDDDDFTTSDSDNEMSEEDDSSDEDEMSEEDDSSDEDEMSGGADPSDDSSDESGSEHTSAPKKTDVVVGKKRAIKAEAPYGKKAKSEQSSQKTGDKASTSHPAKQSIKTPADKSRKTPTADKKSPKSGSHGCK

[6] = target: T2, Histone deacetylase (Homo sapiens); assay: Inhibitory concentration against human Histone deacetylase; type: protein assay; settings: concentration not given here
[7] = Inhibition of acetylation of histone-4 in human T-24 cancer cells
Jurkat = assay: In vitro inhibitory concentration against human Jurkat cell proliferation; type: functional, cell-based
HT-29 = assay: In vitro inhibitory concentration against HT-29 tumor cell proliferation; type: functional, cell-based; settings: Homo sapiens
Histone deacetylase 1 [8] = target: Histone deacetylase 1 (Homo sapiens, UniProt Q13547); assay: Inhibitory concentration against human Histone deacetylase 1
[9] = target: T2, Histone deacetylase (Homo sapiens); assay: Percent inhibition against isolated Histone deacetylase enzyme at 30 uM; type: protein assay
Histone deacetylase [10] = target: Histone deacetylase; design: species or system Rattus norvegicus
Description: Inhibitory concentration against rat liver Histone deacetylase

HT-1080 = assay: cells; type: functional, cell-based; settings: Homo sapiens
Description: Inhibitory concentration against HT1080 cells proliferation

MDA-MB-435 = assay: cells; type: functional, cell-based; settings: Homo sapiens
Description: Inhibitory concentration against MDA-435 cells proliferation

[11] = Inhibitory concentration against mixed human Histone deacetylase 1, Histone deacetylase 2 and Histone deacetylase 3

Histone deacetylase 2, sequence (Q92769 whole entry): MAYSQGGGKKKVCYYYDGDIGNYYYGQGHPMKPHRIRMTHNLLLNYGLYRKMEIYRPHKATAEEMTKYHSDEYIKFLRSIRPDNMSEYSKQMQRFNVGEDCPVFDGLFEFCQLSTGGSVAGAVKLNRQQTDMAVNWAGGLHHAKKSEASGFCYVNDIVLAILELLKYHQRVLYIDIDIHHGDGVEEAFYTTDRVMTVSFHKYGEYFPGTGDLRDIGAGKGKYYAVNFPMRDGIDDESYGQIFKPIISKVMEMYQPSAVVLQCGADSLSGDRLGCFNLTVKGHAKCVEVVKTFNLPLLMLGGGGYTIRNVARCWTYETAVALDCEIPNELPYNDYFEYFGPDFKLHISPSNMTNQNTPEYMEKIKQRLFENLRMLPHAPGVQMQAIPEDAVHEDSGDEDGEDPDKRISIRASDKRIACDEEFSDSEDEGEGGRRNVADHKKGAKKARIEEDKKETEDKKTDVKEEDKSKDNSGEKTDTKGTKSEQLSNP
Histone deacetylase 4, sequence (P56524 whole entry): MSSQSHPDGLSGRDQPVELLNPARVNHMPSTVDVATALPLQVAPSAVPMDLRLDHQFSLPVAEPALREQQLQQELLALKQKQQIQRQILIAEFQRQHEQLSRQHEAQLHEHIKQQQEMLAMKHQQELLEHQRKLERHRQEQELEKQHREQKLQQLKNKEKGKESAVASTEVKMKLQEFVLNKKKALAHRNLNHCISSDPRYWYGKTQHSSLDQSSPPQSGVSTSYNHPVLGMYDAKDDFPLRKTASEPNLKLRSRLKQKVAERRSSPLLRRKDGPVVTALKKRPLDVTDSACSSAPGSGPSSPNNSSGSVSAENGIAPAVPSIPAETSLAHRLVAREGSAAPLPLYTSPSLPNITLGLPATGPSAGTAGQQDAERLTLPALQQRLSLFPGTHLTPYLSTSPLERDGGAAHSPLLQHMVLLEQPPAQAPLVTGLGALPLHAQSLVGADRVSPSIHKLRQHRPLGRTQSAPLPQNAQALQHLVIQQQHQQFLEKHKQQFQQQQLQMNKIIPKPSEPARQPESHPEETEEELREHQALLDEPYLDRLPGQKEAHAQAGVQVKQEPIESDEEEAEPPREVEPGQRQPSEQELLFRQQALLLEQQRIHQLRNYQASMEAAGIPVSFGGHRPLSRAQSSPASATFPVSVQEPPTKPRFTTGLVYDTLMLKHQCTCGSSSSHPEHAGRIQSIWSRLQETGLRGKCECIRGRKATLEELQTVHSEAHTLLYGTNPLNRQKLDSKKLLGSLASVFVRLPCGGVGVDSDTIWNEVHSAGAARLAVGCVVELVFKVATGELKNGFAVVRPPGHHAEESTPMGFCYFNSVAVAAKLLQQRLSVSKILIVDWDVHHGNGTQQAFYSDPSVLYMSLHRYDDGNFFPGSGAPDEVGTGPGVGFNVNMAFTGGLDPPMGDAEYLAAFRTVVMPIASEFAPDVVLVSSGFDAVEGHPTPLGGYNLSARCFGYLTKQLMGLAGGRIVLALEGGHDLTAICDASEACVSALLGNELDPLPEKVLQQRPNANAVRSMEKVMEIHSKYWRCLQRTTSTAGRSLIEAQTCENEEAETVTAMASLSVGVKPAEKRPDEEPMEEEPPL
Histone deacetylase 1 (Homo sapiens, UniProt Q13547, C151S), sequence (Q13547 whole entry C151S): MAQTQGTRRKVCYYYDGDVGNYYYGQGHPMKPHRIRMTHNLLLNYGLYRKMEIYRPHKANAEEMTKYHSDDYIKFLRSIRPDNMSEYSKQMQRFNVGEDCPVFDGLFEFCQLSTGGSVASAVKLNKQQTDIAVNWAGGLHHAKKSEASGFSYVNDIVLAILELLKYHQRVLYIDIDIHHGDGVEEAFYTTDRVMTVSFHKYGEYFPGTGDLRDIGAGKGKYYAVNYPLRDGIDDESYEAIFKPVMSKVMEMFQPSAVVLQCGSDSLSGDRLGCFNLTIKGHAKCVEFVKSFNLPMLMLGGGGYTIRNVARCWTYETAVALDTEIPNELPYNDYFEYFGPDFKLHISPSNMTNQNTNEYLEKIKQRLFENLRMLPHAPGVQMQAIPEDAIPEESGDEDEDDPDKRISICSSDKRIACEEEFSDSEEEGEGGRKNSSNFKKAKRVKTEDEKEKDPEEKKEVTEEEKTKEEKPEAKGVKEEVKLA
Histone deacetylase 1 (Homo sapiens, UniProt Q13547), sequence (Q13547 whole entry): as the sequence (Q13547 whole entry C151S) above, with S151C counted along it

For `C[C@H](/C=C/C=C/C(=O)NO)NC(=O)c1ccc(N(C)C)cc1`, which IC50 (Histone deacetylase [1]) is on record?
The IC50 was 12187 nM.

With `C/C=C1\NC(=O)[C@H]2CSSCC/C=C/[C@H](CC(=O)N[C@H](C(C)C)C(=O)N2)OC(=O)[C@H](C(C)C)NC1=O` [ROMIDEPSIN] as the molecule, how does the IC50 (Histone deacetylase 1 [2]) read?
The IC50 was 280 nM.

With `C/C=C1\NC(=O)[C@@H](CS)NC(=O)[C@@H](C(C)C)NC(=O)C[C@@H](/C=C/CCS)OC(=O)[C@H](C(C)C)NC1=O` [FR-135313] as the molecule, how does the IC50 (Histone deacetylase 2) read?
Its IC50 is 3.9 nM.

What about the IC50 (Histone deacetylase 4) of the same molecule?
The IC50 was 25 nM.

And the IC50 [3]?
Its IC50 is 790 nM.

With `O=C(CCCCCCN1c2cccc3cccc(c23)S1(=O)=O)NO` as the molecule, how does the IC50 (Histone deacetylase [1]) read?
The IC50 was 10 nM.

Which inhibition [4] does the source give for `Cn1cc(C(=O)c2ccccc2)cc1C=C1C(=O)NC(=O)NC1=O` here?
Its inhibition is 0%.

Which results are given for `O=C(/C=C/c1ccc(CNCCCc2ccccc2)cc1)NO`?
IC50 (HCT-116): 64 nM; IC50 (Histone deacetylase [5]): 64 nM

For `CN(C)c1ccc(C(=O)Nc2ccc(CC(=O)NO)cc2)cc1`, which IC50 (Histone deacetylase HD2) is on record?
Its IC50 is over 40000 nM.

With `O=C(CCCCCCCOc1ccc(-c2ccccc2)cc1)C(F)(F)F` as the molecule, how does the inhibition [6] read?
The inhibition was 72%.

Which EC [7] does the source give for `Nc1ccccc1NC(=O)/C=C/c1ccc(S(=O)(=O)Nc2ccc(-c3ccccc3)cc2)cc1` here?
Its EC is 5 µM.

For `Cn1cc(C(=O)c2ccccc2)cc1C=C1C(=O)NC(=S)NC1=O`, which inhibition [4] is on record?
Its inhibition is 0%.

For `CCC(=O)CCCCC[C@@H]1NC(=O)[C@H]2CCCCN2C(=O)[C@H](Cc2ccccc2)NC(=O)[C@H](Cc2ccccc2)NC1=O`, which IC50 (Jurkat) is on record?
Its IC50 is 0.152 µg/mL (≈ 0.258 µM).

And the IC50 (HT-29)?
Its IC50 is 0.158 µg/mL (≈ 0.268 µM).

With `C[C@H](CCCCC(=O)NO)NC(=O)c1ccc(N(C)C)cc1` as the molecule, how does the IC50 (Histone deacetylase [1]) read?
Its IC50 is 359 nM.

For `C/C=C1\NC(=O)[C@@H](CSC)NC(=O)[C@@H](C(C)C)CC(=O)C[C@@H](/C=C/CCSC)OC(=O)[C@H](C(C)C)NC1=O`, which IC50 (Histone deacetylase 1 [2]) is on record?
Its IC50 is over 100000 nM.

What about the IC50 (Histone deacetylase 2) of the same molecule?
The IC50 was 3300 nM.

And the IC50 (Histone deacetylase 4)?
The IC50 was 110000 nM.

What about the IC50 (Histone deacetylase 1 [8]) of the same molecule?
Its IC50 is 6300 nM.

And the IC50 [3]?
The IC50 was over 100000 nM.

For `Cn1cc(C(=O)Cc2ccccc2)cc1/C=C/C#N`, which inhibition [9] is on record?
The inhibition was 0%.

Which EC [7] does the source give for `Nc1ccccc1NC(=O)/C=C/c1ccc(NS(=O)(=O)c2ccc(-c3ccccc3)cc2)cc1` here?
Its EC is 15 µM.

Which results are given for `CC(C)C[C@H]1C(=O)N2C(=O)[C@@H]1CCCCOc1ccc(cc1)C[C@H]2C(=O)NCCCCCC(=O)NO`?
IC50 (Histone deacetylase [10]): 38 nM; IC50 (HT-1080): 250 nM; IC50 (MDA-MB-435): 150 nM

For `N#Cc1ccc(-c2ccc(OCCCCCCC(=O)NO)cc2)cc1`, which IC50 [11] is on record?
Its IC50 is 9 nM.

From ChEMBL document CHEMBL1145900, “Histone deacetylase inhibitors” (J Med Chem, 2003)
